Values joined by “and” are separate entries in the source; they are usually repeats but may differ in a detail not shown here. Identical values can stand only once. Toxic doses and inconclusive results are not listed. How the source made its calls: active means survival T/C of 150% or more; inactive means T/C below 125% in these data.
Test system: P388 leukemia ip, CD2F1 mice, survival T/C
Experiment: NCI In Vivo Anticancer Drug Screen. Data for tumor model P388 Leukemia (intraperitoneal) in CD2F1 (CDF1) mice
Conditions: endpoint: median survival time, higher = longer survival
Summary of the method: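 Mice carrying the transplanted tumor received test compound or vehicle. Survival was recorded in each group, and the value is the treated-group measurement divided by that of the vehicle-treated control group.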

[1] = dose: 50.0 mg/kg/injection, schedule: Q01DX005 (ip), vehicle: saline with Tween-80
[2] = dose: 100.0 mg/kg/injection, schedule: Q01DX005 (ip), vehicle: saline with Tween-80
[3] = dose: 200.0 mg/kg/injection, schedule: Q01DX005 (ip), vehicle: saline with Tween-80
[4] = dose: 50.0 mg/kg/injection, schedule: Q01DX009 (ip), vehicle: Klucel (hydroxypropylcellulose) (HPC)
[5] = dose: 100.0 mg/kg/injection, schedule: Q01DX009 (ip), vehicle: Klucel (hydroxypropylcellulose) (HPC)
[6] = dose: 200.0 mg/kg/injection, schedule: Q01DX009 (ip), vehicle: Klucel (hydroxypropylcellulose) (HPC)
[7] = dose: 50.0 mg/kg/injection, schedule: Q01DX009 (ip), vehicle: saline with Tween-80
[8] = dose: 25.0 mg/kg/injection, schedule: Q01DX009 (ip), vehicle: saline with Tween-80

Measured: T/C

CCCCN1CSC(=S)N(Cc2ccccc2)C1
inactive: dose: 50.0 mg/kg/injection, schedule: Q01DX009 (ip), vehicle: other 115 % of control | dose: 100.0 mg/kg/injection, schedule: Q01DX009 (ip), vehicle: other 108 % of control | dose: 200.0 mg/kg/injection, schedule: Q01DX009 (ip), vehicle: other 92 % of control

CCOc1c(N=Nc2ccc(Cl)cc2)c(C)nn1C(=S)SC
inactive: dose: 7.5 mg/kg/injection, schedule: Q01DX005 (ip), vehicle: Klucel + Tween-80 92 % of control | dose: 15.0 mg/kg/injection, schedule: Q01DX005 (ip), vehicle: Klucel + Tween-80 86 % of control | dose: 30.0 mg/kg/injection, schedule: Q01DX005 (ip), vehicle: Klucel + Tween-80 86 % of control | dose: 60.0 mg/kg/injection, schedule: Q01DX005 (ip), vehicle: Klucel + Tween-80 94 % of control

CCOC(=O)CC1=CSC(=C(C#N)C#N)N1c1ccccc1
inactive: [1] 102 % of control | [2] 98 % of control | [3] 98 % of control

COC(=O)c1cc(-c2ccco2)n2c(NC(=O)Nc3ccc(Cl)cc3)nnc2n1
inactive: [1] 98 % of control | [2] 103 % of control | [3] 95 % of control

Cn1c2cc([N+](=O)[O-])ccc2c(=O)c2c(O)cc3c(c21)C=CC(C)(C)O3
inactive: dose: 100.0 mg/kg/injection, schedule: Q01DX001 (ip), vehicle: saline with Tween-80 100 % of control | dose: 200.0 mg/kg/injection, schedule: Q01DX001 (ip), vehicle: saline with Tween-80 103 % of control

NC1(O)C(=O)NC(=O)NC1=O
inactive: dose: 60.0 mg/kg/injection, schedule: Q01DX005 (ip), vehicle: saline 101 % of control | dose: 120.0 mg/kg/injection, schedule: Q01DX005 (ip), vehicle: saline 93 % of control | dose: 240.0 mg/kg/injection, schedule: Q01DX005 (ip), vehicle: saline 88 % of control

O=C1CSC(c2ccccc2F)N1c1ncccn1 (stereo not given)
inactive: dose: 12.5 mg/kg/injection, schedule: Q01DX005 (ip), vehicle: Klucel (hydroxypropylcellulose) (HPC) 105 % of control | dose: 25.0 mg/kg/injection, schedule: Q01DX005 (ip), vehicle: Klucel (hydroxypropylcellulose) (HPC) 108 % of control | dose: 50.0 mg/kg/injection, schedule: Q01DX005 (ip), vehicle: Klucel (hydroxypropylcellulose) (HPC) 108 % of control (2×) and 119 % of control | dose: 100.0 mg/kg/injection, schedule: Q01DX005 (ip), vehicle: Klucel (hydroxypropylcellulose) (HPC) 104 % of control and 109 % of control and 119 % of control | dose: 200.0 mg/kg/injection, schedule: Q01DX005 (ip), vehicle: Klucel (hydroxypropylcellulose) (HPC) 100 % of control and 109 % of control

COC(=O)c1ccn2c1CCC2
inactive: dose: 25.0 mg/kg/injection, schedule: Q01DX009 (ip), vehicle: Klucel (hydroxypropylcellulose) (HPC) 91 % of control | [4] 91 % of control | [5] 95 % of control | [6] 98 % of control | dose: 400.0 mg/kg/injection, schedule: Q01DX009 (ip), vehicle: Klucel (hydroxypropylcellulose) (HPC) 91 % of control

CC(C)CC(CC(C)C)[N+](=O)[O-]
inactive: [1] 111 % of control | [2] 105 % of control | [3] 107 % of control

CSc1nc(N)c2cnn(C3CCCO3)c2n1 (stereo not given)
inactive: [2] 102 % of control | [3] 94 % of control | dose: 400.0 mg/kg/injection, schedule: Q01DX005 (ip), vehicle: saline with Tween-80 97 % of control

O=C(Nc1ccccc1Cl)Oc1ccc(Cl)cc1Cl
inactive: [4] 101 % of control | [5] 110 % of control | [6] 106 % of control

COC(=O)C1C(=O)CC2C(C(=O)OC)C(=O)CC12 (stereo not given)
inactive: [7] 99 % of control | dose: 100.0 mg/kg/injection, schedule: Q01DX009 (ip), vehicle: saline with Tween-80 95 % of control | dose: 200.0 mg/kg/injection, schedule: Q01DX009 (ip), vehicle: saline with Tween-80 98 % of control

COC(=O)/C=C(\C)NC1CC(OC2C[C@](O)(C(C)=O)Cc3c(O)c4c(c(O)c32)C(=O)c2c(OC)cccc2C4=O)OC(C)C1O (stereo not given in full)
inactive: dose: 6.25 mg/kg/injection, schedule: Q04DX003 (ip), vehicle: saline with Tween-80 105 % of control | dose: 12.5 mg/kg/injection, schedule: Q04DX003 (ip), vehicle: saline with Tween-80 110 % of control and 113 % of control | dose: 50.0 mg/kg/injection, schedule: Q04DX003 (ip), vehicle: saline with Tween-80 96 % of control

Cc1c2cc[n+](C[n+]3ccc4c(C)c5[nH]c6ccccc6c5c(C)c4c3)cc2c(C)c2c1[nH]c1ccccc12
inactive: dose: 12.5 mg/kg/injection, schedule: Q04DX002 (ip), vehicle: DMSO 107 % of control | dose: 25.0 mg/kg/injection, schedule: Q04DX002 (ip), vehicle: DMSO 111 % of control | dose: 50.0 mg/kg/injection, schedule: Q04DX002 (ip), vehicle: DMSO 115 % of control | dose: 100.0 mg/kg/injection, schedule: Q04DX002 (ip), vehicle: DMSO 121 % of control

CCOC(=O)C1=NN2c3ccccc3OCC2C1 (stereo not given)
inactive: dose: 50.0 mg/kg/injection, schedule: Q04DX003 (ip), vehicle: suspension in saline 99 % of control | dose: 100.0 mg/kg/injection, schedule: Q04DX003 (ip), vehicle: suspension in saline 101 % of control | dose: 200.0 mg/kg/injection, schedule: Q04DX003 (ip), vehicle: suspension in saline 100 % of control

COC(=O)c1n[nH]c(C(C)C)c1N=NN(C)C
inactive: dose: 6.25 mg/kg/injection, schedule: Q01DX009 (ip), vehicle: saline 107 % of control and 113 % of control | dose: 12.5 mg/kg/injection, schedule: Q01DX009 (ip), vehicle: saline 116 % of control and 122 % of control

O=C(Nc1ccccc1)Oc1cccc(/C=N/Sc2ccccc2)c1
inactive: [7] 98 % of control

O=C1c2ccccc2C(=O)N1CC[P+](c1ccccc1)(c1ccccc1)c1ccccc1
inactive: dose: 0.78 mg/kg/injection, schedule: Q01DX009 (ip), vehicle: water 87 % of control | dose: 1.56 mg/kg/injection, schedule: Q01DX009 (ip), vehicle: water 112 % of control and 103 % of control and 115 % of control | dose: 3.13 mg/kg/injection, schedule: Q01DX009 (ip), vehicle: saline with Tween-80 121 % of control | dose: 3.13 mg/kg/injection, schedule: Q01DX009 (ip), vehicle: water 123 % of control and 118 % of control and 120 % of control | dose: 6.25 mg/kg/injection, schedule: Q01DX009 (ip), vehicle: saline with Tween-80 88 % of control | dose: 12.5 mg/kg/injection, schedule: Q01DX009 (ip), vehicle: water 123 % of control and 105 % of control | dose: 18.8 mg/kg/injection, schedule: Q01DX009 (ip), vehicle: water 93 % of control | [8] 123 % of control | dose: 25.0 mg/kg/injection, schedule: Q01DX009 (ip), vehicle: water 98 % of control

C(/C=C/c1ccccc1)=C1SCCCS1
inactive: dose: 100.0 mg/kg/injection, schedule: Q04DX003 (ip), vehicle: saline with Tween-80 94 % of control | dose: 200.0 mg/kg/injection, schedule: Q04DX003 (ip), vehicle: saline with Tween-80 103 % of control | dose: 400.0 mg/kg/injection, schedule: Q04DX003 (ip), vehicle: saline with Tween-80 90 % of control

COc1ccc(C(=O)C(Br)C(Br)C(=O)O)cc1 (stereo not given)
inactive: dose: 12.5 mg/kg/injection, schedule: Q01DX009 (ip), vehicle: saline with Tween-80 114 % of control | [8] 114 % of control | [7] 107 % of control and 121 % of control

O=C(O)c1cc2ccccc2c(N=Nc2cc(C(F)(F)F)ccc2Cl)c1O
inactive: dose: 12.5 mg/kg/injection, schedule: Q01DX005 (ip), vehicle: saline with Tween-80 102 % of control | dose: 25.0 mg/kg/injection, schedule: Q01DX005 (ip), vehicle: saline with Tween-80 100 % of control | [1] 98 % of control and 100 % of control | [3] 86 % of control

CN1CCCN2CCCN(C)P12
inactive: dose: 6.25 mg/kg/injection, schedule: Q01DX005 (ip), vehicle: saline 99 % of control | dose: 12.5 mg/kg/injection, schedule: Q01DX005 (ip), vehicle: saline 98 % of control | dose: 25.0 mg/kg/injection, schedule: Q01DX005 (ip), vehicle: saline 105 % of control

From PubChem BioAssay AID330 (DTP/NCI, 2004)
